Results published in patent publication US6608174B1, “Radiolabeled vasoactive intestinal peptide analogs for diagnosis and radiotherapy” (Dabur Research Foundation, priority 2000, dated 2003).
Square brackets hold non-standard residues; d marks the D form. Ends that are not written are not given here. dPhe(4-Cl) = N[C@H](Cc1ccc(Cl)cc1)C(=O)O; Aib = CC(C)(N)C(=O)O

Experiments:
VIP receptors = test: Displacement assay using 125I labeled VIP (10-28) fragment on human tumor cell lines; details: inhibition of 125I labeled VIP (10-28) fragment binding
Procedure: Peptides of the invention were assayed for biological activity in homogeneous competition binding assays using ^125I labeled VIP peptide (SEQ ID NO:1) and in heterogeneous displacement assays using either ^125I labeled VIP (10-28) fragment (Tyr-Thr-Arg-Leu-Arg-Lys-Gln-Met-Ala-Val-Lys-Lys-Tyr-Leu-Asn-Ser-Ile-Leu-Asn-NH2) (SEQ ID NO: 12) or ^125I labeled VIP (SEQ ID NO:1). The assays were performed on a variety of human tumor cell lines.
In the practice of these methods, the peptide was radioiodinated using the iodogen method. Briefly, 5 μg of the peptide in 10 μl of 50 mM PBS (pH 7.5), an appropriate amount of the radioisotope and 50 μg-100 μg iodogen were incubated at room temperature for 15-30 min with occasional mixing. Radioiodinated peptide was purified from unincorporated radioactive iodine by purification on a Sep Pak C18 cartridge, essentially following the same procedure as described for technetium labeling.
Displacement assays were performed at 4-8° C. Briefly, 50,000 cells were plated per well of a 24 well plate and allowed to adhere overnight. Before the assay, the cells were washed twice with ice cold Binding buffer (25 mM HEPES, 10 mM MgCl2 and 1% BSA in RPMI 1640 medium). The cells were incubated for 2-3hrs with an appropriate concentration (0.1-10 nM) of ^125I labeled VIP (10-28) fragment (SEQ ID NO:12) in the presence and absence of the cold ligand (SEQ ID NO: 2) (1 nM-10 μM). The non specific binding was ascertained using 10 μM of VIP. After incubation, the cells were washed thrice with the binding buffer to remove the unbound peptide. The cells were lysed and counts were measured in a Gamma counter. From a comparison of the extent of binding in the presence or absence of the unlabeled peptide, a concentration was determined corresponding to inhibition of ^125I labeled VIP (10-28) fragment binding by 50% (termed the IC50) (TABLE III).
The following tumor cell lines were assayed using the above described displacement assay: HT29 (human colorectal adenocarcinoma); PTC (human primary tumor cells adenocarcinoma); KB (human squamous cell carcinoma); 4451 (human squamous cell carcinoma); L132 (human lung carcinoma); A549 (human lung carcinoma); HBL100 (human breast carcinoma) and PA1 (human ovarian carcinoma).
Cells were grown in RPMI 1640 supplemented with 10% fetal calf serum, glutamine and antibiotics using standard cell culture techniques (see Animal Cell Culture: A Practical Approach, Freshney, ed, IRL press: Oxford, UK, 1992).

[1] = biological target: low affinity (µM range), high surface expression receptor on human tumor cells (VIP receptor) (human); test: homologous radioligand competition, 125I-SEQ ID NO:2 on HT29 cells
[2] = biological target: high affinity (nM range), low surface expression receptor on human tumor cells (VIP receptor) (human); test: homologous radioligand competition, 125I-SEQ ID NO:2 on KB cells
[3] = biological target: low affinity (µM range), high surface expression receptor on human tumor cells (VIP receptor) (human); test: as above
[4] = biological target: VIP receptors on human tumor cell lines (human); test: displacement of 125I labeled VIP on PA1 cells
[5] = biological target: VIP receptors on human tumor cell lines (human); test: displacement of 125I labeled VIP (10-28) fragment on 4451 cells
[6] = biological target: VIP receptors on human tumor cell lines (human); test: displacement of 125I labeled VIP (10-28) fragment on KB cells

Row | Molecule | IC50 (VIP receptors; 4451 cells) | IC50 (VIP receptors; A549 cells) | IC50 (VIP receptors; HBL 100 cells) | IC50 (VIP receptors; HT29 cells) | IC50 (VIP receptors; KB cells) | IC50 (VIP receptors; L132 cells) | IC50 (VIP receptors; PA1 cells) | IC50 (VIP receptors; PTC cells) | Kd [1] | Kd [2] | Kd [3] | IC50 [4] | IC50 [5] | IC50 [6]
1 | His-Ser-Asp-Aib-Val-4-Cl-D-Phe-Thr-Asp-Asn-Tyr-Thr-Arg-Leu-Arg-Lys-Gln-Leu-Ala-Val-Lys-Lys-Tyr-Leu-Asn-Ser-Ile-Leu-Asn-NH2 (HSD[Aib]V[dPhe(4-Cl)]TDNYTRLRKQLAVKKYLNSILN-NH2; N-terminus assumed; SMILES CC[C@H](C)[C@H](NC(=O)[C@H](CO)NC(=O)[C@H](CC(N)=O)NC(=O)[C@H](CC(C)C)NC(=O)[C@H](Cc1ccc(O)cc1)NC(=O)[C@H](CCCCN)NC(=O)[C@H](CCCCN)NC(=O)[C@@H](NC(=O)[C@H](C)NC(=O)[C@H](CC(C)C)NC(=O)[C@H](CCC(N)=O)NC(=O)[C@H](CCCCN)NC(=O)[C@H](CCCNC(=N)N)NC(=O)[C@H](CC(C)C)NC(=O)[C@H](CCCNC(=N)N)NC(=O)[C@@H](NC(=O)[C@H](Cc1ccc(O)cc1)NC(=O)[C@H](CC(N)=O)NC(=O)[C@H](CC(=O)O)NC(=O)[C@@H](NC(=O)[C@@H](Cc1ccc(Cl)cc1)NC(=O)[C@@H](NC(=O)C(C)(C)NC(=O)[C@H](CC(=O)O)NC(=O)[C@H](CO)NC(=O)[C@@H](N)Cc1c[nH]cn1)C(C)C)[C@@H](C)O)[C@@H](C)O)C(C)C)C(=O)N[C@@H](CC(C)C)C(=O)N[C@@H](CC(N)=O)C(N)=O) [SEQ ID NO:2, VIP receptor antagonist, preferred peptide (Xxx = Aib)] | 0.383 nM | 0.275 nM | 0.236 nM | 0.22 nM | 0.35 nM | 0.228 nM | 0.31 nM | 0.132 nM | – | – | – | – | – | –
2 | HSD[Aib]V[dPhe(4-Cl)]TDNYTRLRKQLAVKKYLNSILN-NH2 (also: 125I-labelled form (iodogen) used as tracer) | – | – | – | – | – | – | – | – | 1370 nM | 4.2 nM | 1840 nM | 7.6 nM | 0.383 nM | 0.35 nM
